According to patent publication US7329688B2, “Natural vitamin E compositions with superior antioxidant potency” (Soft Gel Technologies, Inc., priority 2002, dated 2008):

Assay: Oxygen radical absorbance capacity (ORACFL-LIPO) assay with fluorescein probe, RMCD, AAPH, Trolox standard
Conditions: for Antioxidant activity (ORAC), μmole Trolox equivalent per gram sample: 75 mM phosphate buffer pH 7.4, 7% RMCD; for Antioxidant activity (ORAC) per 400 IU: μmole TE/g × total weight in grams of formula which gives 400 IU
Experimental: The antioxidant activities of natural d-alpha-tocopherol, mixed tocopherols and tocotrienols, and formulations comprising all forms of vitamin E were determined employing an improved oxygen radical absorbance capacity (ORAC) assay using fluorescein (FL) as a fluorescent probe, randomly methylated β-cyclodextrin (RMCD) to enhance solubility of lipophilic antioxidants in aqueous medium, 2,2′-azobis (2-amidino-propane) dihydrochloride (AAPH) as peroxyl radical generator, and Trolox as a standard in 75 mM phosphate buffer.
(§1) The antioxidant activity, commonly referred to as oxygen radical absorbance capacity (ORAC), of a lipophilic substance was measured employing a newly developed assay. This assay is based on the use of: (a) fluorescein (FL) as the fluorescent probe, (b) randomly methylated β-cyclodextrin (RMCD) as a molecular host to enhance the solubility of lipophilic antioxidants in aqueous solution, (c) 2,2′-azobis (2-amidino-propane) dihydrochloride (AAPH) as a peroxyl radical generator, and (d) 6-hydroxy-2,5,7,8-tetramethyl-2-carboxylic acid (Trolox) as a standard in 75 mM phosphate buffer (pH 7.4).
The antioxidant activities of vitamin E formulations comprising all compounds of tocopherols and tocotrienols were determined employing an improved oxygen radical absorbance capacity (abbreviated ORACFL-LIPO) assay using fluorescein (FL) as the fluorescent probe, randomly methylated β-cyclodextrin (RMCD) as the water solubility enhancer for lipophilic antioxidants in 75 mM phosphate buffer (pH 7.4).
In the presence ofperoxyl radicals derived from AAPH, the indicator FL gradually loses its fluorescence. The antioxidant activity of a substance is measured by its ability to retain the fluorescence of FL in the presence of peroxyl radicals. The net protection of FL was measured as previously described by Ou et al.
All other standards were commercially available form Sigma or Aldrich. All ORAC analyses were performed on a COBAS FARA II analyzer (Roche Diagnostic System Inc., Branchburg, NJ) using an excitation wavelength of 493 nm and an emission filter of 515 nm.
Approximately 0.5 g of sample was dissolved in 20 mL of acetone. An aliquot of sample solution was appropriately diluted with 7% RMCD solvent (w/v) made in a 50% acetone-water mixture (v/v) and was shaken for 1 hr at room temperature on an orbital shaker at 400 rpm. The sample solution was ready for analysis after further dilution with 7% RMCD solvent.
The automated ORAC assay was carried out on a COBAS FARA II spectrofluorometer centrifugal analyzer as previously described (9). With the exception of samples and Trolox standards, which were made in 7% RMCD solvent, all other reagents were prepared at 75 mM phosphate buffer (pH 7.4). In the final assay mixture (0.4 mL total volume), FL (6.3×10^−8 M) was used as a target of free radical attack and AAPH (1.28×10^−2 M) was used as a peroxyl radical generator. 7% RMCD was used as the blank, and Trolox (12.5, 25,50, and 100 μM) was used as the control standard. The analyzer was programmed to record the fluorescence of FL every minute after the addition of AAPH. All measurements were expressed relative to the initial reading. Final results were calculated using the differences of areas under the FL decay curves between the blank and a sample.
as §1, with “6-hydroxy-2,5,7,8-tetrmethyl-2-carboxylic” for “6-hydroxy-2,5,7,8-tetramethyl-2-carboxylic”
In the presence of peroxyl radicals derived from AAPH, the indicator FL gradually loses its fluorescence. […]

Compound | Antioxidant activity (ORAC), μmole Trolox equivalent per gram sample (Table 1) | Antioxidant activity (ORAC), μmole Trolox equivalent per gram sample (Table 1, listed as alpha-tocopherol (87%)) | Antioxidant activity (ORAC), μmole Trolox equivalent per gram sample (Table 1, listed as d-alpha-tocopherol (87%)) | Antioxidant activity (ORAC) per 400 IU (Table 1) | Antioxidant activity (ORAC), μmole Trolox equivalent per gram sample (Table 2) | Antioxidant activity (ORAC) per 400 IU (Table 2) | Antioxidant activity (ORAC) in words, relative to d-alpha-tocopherol (qualitative statement)
Cc1c(C)c2c(c(C)c1O)CC[C@@](C)(CCC[C@H](C)CCC[C@H](C)CCCC(C)C)O2 [d-alpha-Tocopheral (87%), d-alpha-tocopherol] | 1,293 ± 64 μmole TE/g | 1,293 μmole TE/g | 1,293 μmole TE/g | 398 μmole TE/400IU | 1,293 ± 80 μmole TE/g | 413 μmole TE/400IU | –
CC(=O)Oc1c(C)c(C)c2c(c1C)CCC(C)(CCC[C@H](C)CCC[C@H](C)CCCC(C)C)O2 (stereo partly drawn) [Alpha-Tocopherol Acetate] | 14 ± 10 μmole TE/g | – | – | – | – | – | no antioxidant activity
